Measurements reported in the supplement of paper PMC10307832.

Assays:
Assay in all cases: relative viability (nuclei count vs DMSO), 5 days (fraction); higher = more cells survive
[1] = test system: PC-14
Outline: (§1)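 Lung cancer cell lines in 1536-well plates got either a single drug or a fixed anchor-drug dose together with five library-drug doses (not always all listed) in √10 steps, by pin tool, on the day after seeding. Nuclei were counted after 5 days, and relative viability is the treated-to-vehicle ratio of nuclei counts. Values are medians of duplicate plates.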

[2] = test system: NCI-H2405
Outline: as §1

[3] = test system: NCI-H23
Outline: as §1

[4] = test system: H3255
Outline: as §1

[5] = test system: NCI-H647
Outline: as §1

[6] = test system: NCI-H650
Outline: as §1

[7] = test system: EPLC-272H
Outline: as §1

[8] = test system: HCC-827
Outline: as §1

[9] = test system: NCI-H2126
Outline: as §1

[10] = test system: NCI-H2087
Outline: as §1

[11] = test system: LC-2-ad
Outline: as §1

[12] = test system: NCI-H661
Outline: as §1

[13] = test system: NCI-H1666
Outline: as §1

[14] = test system: ChaGo-K-1
Outline: as §1

[15] = test system: NCI-H520
Outline: as §1

[16] = test system: NCI-H2347
Outline: as §1

[17] = test system: HCC-78
Outline: as §1

[18] = test system: RERF-LC-KJ
Outline: as §1

[19] = test system: 201T
Outline: as §1

[20] = test system: NCI-H1915
Outline: as §1

[21] = test system: LCLC-97TM1
Outline: as §1

[22] = test system: COR-L 105
Outline: as §1

## Nc1ccn([C@@H]2O[C@H](CO)[C@@H](O)[C@@H]2O)c(=O)n1 [Cytarabine] + CC(=O)Nc1cccc(-n2c(=O)n(C3CC3)c(=O)c3c(Nc4ccc(I)cc4F)n(C)c(=O)c(C)c32)c1 [Trametinib] (partner 0.02 µM)
[1]; first compound 0.005 µM
  relative viability: 0.712
[1]; first compound 0.01581 µM
  relative viability: 0.669
[1]; first compound 0.05 µM
  relative viability: 0.515
[1]; first compound 0.1581 µM
  relative viability: 0.0885
[1]; first compound 0.5 µM
  relative viability: 0.079
[2]; first compound 0.005 µM
  relative viability: 0.648
[2]; first compound 0.01581 µM
  relative viability: 0.53
[2]; first compound 0.05 µM
  relative viability: 0.464
[2]; first compound 0.1581 µM
  relative viability: 0.401
[2]; first compound 0.5 µM
  relative viability: 0.317
[3]; first compound 0.005 µM
  relative viability: 0.441
[3]; first compound 0.01581 µM
  relative viability: 0.355
[3]; first compound 0.05 µM
  relative viability: 0.223
[3]; first compound 0.1581 µM
  relative viability: 0.165
[3]; first compound 0.5 µM
  relative viability: 0.14
[4]; first compound 0.005 µM
  relative viability: 0.637
[4]; first compound 0.01581 µM
  relative viability: 0.652
[4]; first compound 0.05 µM
  relative viability: 0.639
[4]; first compound 0.1581 µM
  relative viability: 0.559
[4]; first compound 0.5 µM
  relative viability: 0.533
[5]; first compound 0.005 µM
  relative viability: 0.449
[5]; first compound 0.01581 µM
  relative viability: 0.317
[5]; first compound 0.05 µM
  relative viability: 0.22
[5]; first compound 0.1581 µM
  relative viability: 0.0976
[5]; first compound 0.5 µM
  relative viability: 0.0793
[6]; first compound 0.005 µM
  relative viability: 0.793
[6]; first compound 0.01581 µM
  relative viability: 0.694
[6]; first compound 0.05 µM
  relative viability: 0.47
[6]; first compound 0.1581 µM
  relative viability: 0.186
[6]; first compound 0.5 µM
  relative viability: 0.196
[7]; first compound 0.005 µM
  relative viability: 0.302
[7]; first compound 0.01581 µM
  relative viability: 0.246
[7]; first compound 0.05 µM
  relative viability: 0.283
[7]; first compound 0.1581 µM
  relative viability: 0.211
[7]; first compound 0.5 µM
  relative viability: 0.22
[8]; first compound 0.005 µM
  relative viability: 0.362
[8]; first compound 0.01581 µM
  relative viability: 0.313
[8]; first compound 0.05 µM
  relative viability: 0.239
[8]; first compound 0.1581 µM
  relative viability: 0.188
[8]; first compound 0.5 µM
  relative viability: 0.154
[9]; first compound 0.005 µM
  relative viability: 0.575
[9]; first compound 0.01581 µM
  relative viability: 0.505
[9]; first compound 0.05 µM
  relative viability: 0.448
[9]; first compound 0.1581 µM
  relative viability: 0.349
[9]; first compound 0.5 µM
  relative viability: 0.357
[10]; first compound 0.005 µM
  relative viability: 0.187
[10]; first compound 0.01581 µM
  relative viability: 0.221
[10]; first compound 0.05 µM
  relative viability: 0.187
[10]; first compound 0.1581 µM
  relative viability: 0.139
[10]; first compound 0.5 µM
  relative viability: 0.126
[11]; first compound 0.005 µM
  relative viability: 0.896
[11]; first compound 0.01581 µM
  relative viability: 0.908
[11]; first compound 0.05 µM
  relative viability: 0.893
[11]; first compound 0.1581 µM
  relative viability: 0.708
[11]; first compound 0.5 µM
  relative viability: 0.47
[12]; first compound 0.005 µM
  relative viability: 0.574
[12]; first compound 0.01581 µM
  relative viability: 0.571
[12]; first compound 0.05 µM
  relative viability: 0.582
[12]; first compound 0.1581 µM
  relative viability: 0.435
[12]; first compound 0.5 µM
  relative viability: 0.385
[13]; first compound 0.005 µM
  relative viability: 0.806
[13]; first compound 0.01581 µM
  relative viability: 0.728
[13]; first compound 0.05 µM
  relative viability: 0.76
[13]; first compound 0.1581 µM
  relative viability: 0.646
[13]; first compound 0.5 µM
  relative viability: 0.592
[14]; first compound 0.005 µM
  relative viability: 0.688
[14]; first compound 0.01581 µM
  relative viability: 0.625
[14]; first compound 0.05 µM
  relative viability: 0.504
[14]; first compound 0.1581 µM
  relative viability: 0.308
[14]; first compound 0.5 µM
  relative viability: 0.247
[15]; first compound 0.005 µM
  relative viability: 0.696
[15]; first compound 0.01581 µM
  relative viability: 0.684
[15]; first compound 0.05 µM
  relative viability: 0.579
[15]; first compound 0.1581 µM
  relative viability: 0.477
[15]; first compound 0.5 µM
  relative viability: 0.484
[16]; first compound 0.005 µM
  relative viability: 0.277
[16]; first compound 0.01581 µM
  relative viability: 0.309
[16]; first compound 0.05 µM
  relative viability: 0.282
[16]; first compound 0.1581 µM
  relative viability: 0.236
[16]; first compound 0.5 µM
  relative viability: 0.257
[17]; first compound 0.005 µM
  relative viability: 1.06
[17]; first compound 0.01581 µM
  relative viability: 0.688
[17]; first compound 0.05 µM
  relative viability: 0.575
[17]; first compound 0.1581 µM
  relative viability: 0.478
[17]; first compound 0.5 µM
  relative viability: 0.37
[18]; first compound 0.005 µM
  relative viability: 0.797
[18]; first compound 0.01581 µM
  relative viability: 0.862
[18]; first compound 0.05 µM
  relative viability: 0.716
[18]; first compound 0.1581 µM
  relative viability: 0.498
[18]; first compound 0.5 µM
  relative viability: 0.402
[19]; first compound 0.005 µM
  relative viability: 0.728
[19]; first compound 0.01581 µM
  relative viability: 0.724
[19]; first compound 0.05 µM
  relative viability: 0.76
[19]; first compound 0.1581 µM
  relative viability: 0.709
[19]; first compound 0.5 µM
  relative viability: 0.694
[20]; first compound 0.005 µM
  relative viability: 0.438
[20]; first compound 0.01581 µM
  relative viability: 0.285
[20]; first compound 0.05 µM
  relative viability: 0.251
[20]; first compound 0.1581 µM
  relative viability: 0.211
[20]; first compound 0.5 µM
  relative viability: 0.18
[21]; first compound 0.005 µM
  relative viability: 0.191
[21]; first compound 0.01581 µM
  relative viability: 0.159
[21]; first compound 0.05 µM
  relative viability: 0.173
[21]; first compound 0.1581 µM
  relative viability: 0.136
[21]; first compound 0.5 µM
  relative viability: 0.135
[22]; first compound 0.005 µM
  relative viability: 0.435
[22]; first compound 0.01581 µM
  relative viability: 0.473
[22]; first compound 0.05 µM
  relative viability: 0.438
[22]; first compound 0.1581 µM
  relative viability: 0.315
[22]; first compound 0.5 µM
  relative viability: 0.302
